In PMC7589491, “Biomimetic Artificial Membrane Permeability Assay over Franz Cell Apparatus Using BCS Model Drugs” (Pharmaceutics, 2020):
Like-named read-outs stand apart in the source and are kept apart here.

Assays:
[1] = Permeation across non-impregnated membrane on Franz cells; type: in vitro ADME; conditions: PAMPA, pH 7.4; as worded; read-out: Papp non-impregnated one across Franz–PAMPA
[2] = Dose number (D0) in donor compartment; type: physicochemical; conditions: 10 mg/mL in donor, not under infinite dose conditions
Caco-2 cells = conditions: cited from earlier work
[3] = cited from earlier work
[4] = set-up: method as in PMID 25840123; conditions: cited from earlier work
[5] = pH 7.4; cited from earlier work
[6] = cited from earlier work; remark: listed apart in the source
[7] = Franz–PAMPA permeation study (lipid-impregnated artificial membrane on Franz cells); conditions: for Papp at 12 h, 10 mg/mL: PAMPA; for Permeability classification in Franz–PAMPA: metoprolol as high permeability marker, best fit method
[8] = cited from earlier work; remark: listed apart in the source
in vitro = conditions: PAMPA
[9] = fraction of dose absorbed in humans; cited from earlier work
[10] = pH 7.4, Papp Franz–PAMPA, PBS pH 7.4, 37 °C, 500 rpm, 12 h, n = 3, best fit of linear portion (sink equation)
[11] = pH 7.4, Papp Non-Sink Arthurson, Franz–PAMPA data, non-sink equation
[12] = pH 7.4, Papp across Franz–PAMPA
[13] = pH 7.4, Papp Non-Sink Arthurson

Structure (SMILES)	D0 [2]	Papp Caco-2 (Caco-2 cells) [×10⁻⁶ cm/s]	Papp Corti [3] [×10⁻⁶ cm/s]	Papp PAMPA pH 7,4 [5]	Intrinsic Solubility [6] [mg/mL]	Papp at 12 h, 10 mg/mL [7, 10] [×10⁻⁶ cm/s]	Papp at 12 h, 10 mg/mL [7, 11] [×10⁻⁶ cm/s]	Log D pH 7.4 [8]	Fa(%) [9] [%]	further results
COCCc1ccc(OCC(O)CNC(C)C)cc1 (stereo not shown) [Metoprolol]	≤ 0.01	23.7	48.1	3.5 × 10^−6 cm/s	1000.0	15.8	59			Papp at 10 mg/mL [1]: 16.1 ×10⁻⁶ cm/s; Papp Permeapad™ [4]: 1 ×10⁻⁶ cm/s; Papp at 12 h, 10 mg/mL [7, 12]: 16.1 ×10⁻⁶ cm/s
Cn1c(=O)c2c(ncn2C)n(C)c1=O [Caffeine]	≤ 0.01		41.1	10.8 × 10^−6 cm/s		36.2	53.3			Papp Permeapad™ [4]: 20.4 ×10⁻⁶ cm/s; Permeability classification in Franz–PAMPA [7]: highly permeable
Cn1c(=O)c2[nH]cnc2n(C)c1=O [Theophylline]					8.33			−0.05		
NS(=O)(=O)c1cc2c(cc1Cl)NCNS2(=O)=O [Hydrochlorothiazide]		0.5	31	0.1 × 10^−6 cm/s					70	Papp at 12 h, 10 mg/mL (in vitro; pH 7.4, Papp Franz–PAMPA): 2.74 ×10⁻⁶ cm/s; Papp at 12 h, 10 mg/mL (in vitro; [13]): 2.7 ×10⁻⁶ cm/s
COc1ccc2cc([C@H](C)C(=O)O)ccc2c1 [Naproxen]	≤ 0.01									
CC(C(=O)O)c1cccc(C(=O)c2ccccc2)c1 (stereo not shown) [Ketoprofen]		20.1	42.7	16.7 × 10^−6 cm/s		12.1				
C[C@](N)(Cc1ccc(O)c(O)c1)C(=O)O [Methyldopa]		0.2	3.2						41	LogP [8]: 0.4
CN/C(=N/CCSCc1nc[nH]c1C)NC#N [Cimetidine]		0.7			6.0	35.6	31	0.4	93	Permeability classification in Franz–PAMPA [7]: highly permeable
NC(=O)N1c2ccccc2C=Cc2ccccc21 [Carbamazepine]					0.12	5.97			100	
CNC(=C[N+](=O)[O-])NCCSCc1ccc(CN(C)C)o1 [Ranitidine]	≤ 0.01	0.5	21.5	0.5 × 10^−6 cm/s	100.0	6.81	5.3	−0.3		
CC(C)NCC(O)COc1cccc2ccccc12 (stereo not shown) [Propranolol]	≤ 0.01	41.9	39.7	23.5 × 10^−6 cm/s	33.0	33.1	88.4			Permeability classification in Franz–PAMPA [7]: highly permeable
CC(C)NCC(O)COc1ccc(CC(N)=O)cc1 (stereo not shown) [Atenolol]	≤ 0.01									
CN1C(C(=O)Nc2ccccn2)=C(O)c2ccccc2S1(=O)=O [Piroxicam]		35.6		8.2 × 10^−6 cm/s	0.11	11	9.6	−0.07	100	Permeability classification in Franz–PAMPA [7]: low permeability drugs
CC1(C)S[C@@H]2[C@H](NC(=O)[C@H](N)c3ccc(O)cc3)C(=O)N2[C@H]1C(=O)O [Amoxicillin]		0.8		1.5 × 10^−6 cm/s		0.85	0.07			LogP [8]: 0.9
COc1cc(Cc2cnc(N)nc2N)cc(OC)c1OC [Trimethoprim]		83	45.5	5.0 × 10^−6 cm/s		6.61	7.7		97	
OC[C@@H](O)[C@@H](O)[C@H](O)[C@H](O)CO [Mannitol]										Papp at 10 mg/mL [1]: 0.32 ×10⁻⁶ cm/s; Papp at 12 h, 10 mg/mL [7, 12]: 0.32 ×10⁻⁶ cm/s
Nc1nc2c(ncn2COCCO)c(=O)[nH]1 [Acyclovir]		0.3	9.1			0.4	0.4	−1.7		Papp Permeapad™ [4]: 7.9 ×10⁻⁶ cm/s; LogP [8]: −1.7
O=C(O)Cc1ccccc1Nc1c(Cl)cccc1Cl [Diclofenac]								1.2	100	Permeability classification in Franz–PAMPA: highly permeable; Papp at 12 h, 10 mg/mL (in vitro; pH 7.4, Papp Franz–PAMPA): 68.1 ×10⁻⁶ cm/s; Papp at 12 h, 10 mg/mL (in vitro; [13]): 105 ×10⁻⁶ cm/s
CC(C)Cc1ccc(C(C)C(=O)O)cc1 (stereo not shown) [Ibuprofen]				6.8 × 10^−6 cm/s	0.01			0.7	93	Papp Permeapad™ [4]: 16.6 ×10⁻⁶ cm/s; LogP [8]: 3.1
